Data published in patent publication US7138361B2, “Herbicidal heterocycles” (E. I. du Pont de Nemours and Company, priority 2000, dated 2006).

Key:
Assay type in all cases: in vivo
[1] = system: Sunflower; test: Test C preemergence; details: scale 0 to 100, 0 no effect, 100 complete control
[2] = system: crabgrass (Digitaria sanguinalis); test: Test B preemergence
Outline: (§1)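 Ratings on a 0 to 100 visual scale (100 complete control) compare treated plants with controls 13 to 15 days after application. Treatments were pre- or postemergence sprays of compound in non-phytotoxic solvent with surfactant.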

[3] = system: barnyardgrass (Echinochloa crus-galli); test: Test B preemergence
Outline: as §1

[4] = system: cocklebur (Xanthium strumarium); test: Test B preemergence
Outline: as §1

[5] = system: morning glory (Ipomoea hederacea); test: Test B preemergence
Outline: as §1

[6] = system: giant foxtail (Setaria faberii); test: Test B preemergence
Outline: as §1

[7] = system: pigweed (Amaranthus retroflexus); test: Test B preemergence
Outline: as §1

[8] = system: rice (Oryza saliva); test: Test B preemergence
Outline: as §1

[9] = system: corn (Zea mays); test: Test B preemergence
Outline: as §1

[10] = system: Surinam grass (Brachiaria decumbens); test: Test B preemergence
Outline: as §1

[11] = system: velvetleaf (Abutilon theophrasti); test: Test B preemergence
Outline: as §1

[12] = system: crabgrass (Digitaria sanguinalis); test: Test B postemergence
Outline: as §1

[13] = system: blackgrass (Alopecurus myosuroides); test: Test B postemergence
Outline: as §1

[14] = system: barnyardgrass (Echinochloa crus-galli); test: Test B postemergence
Outline: as §1

[15] = system: cocklebur (Xanthium strumarium); test: Test B postemergence
Outline: as §1

[16] = system: lambsquarters (Chenopodium album); test: Test B postemergence
Outline: as §1

[17] = system: wild oat (Avena fatua); test: Test B postemergence
Outline: as §1

[18] = system: morning glory (Ipomoea hederacea); test: Test B postemergence
Outline: as §1

[19] = system: giant foxtail (Setaria faberii); test: Test B postemergence
Outline: as §1

[20] = system: wheat (Triticum aestivum); test: Test B postemergence
Outline: as §1

[21] = system: pigweed (Amaranthus retroflexus); test: Test B postemergence
Outline: as §1

[22] = system: corn (Zea mays); test: Test B postemergence
Outline: as §1

[23] = system: Surinam grass (Brachiaria decumbens); test: Test B postemergence
Outline: as §1

[24] = system: velvetleaf (Abutilon theophrasti); test: Test B postemergence
Outline: as §1

[25] = system: lambsquarters (Chenopodium album); test: Test B preemergence
Outline: as §1

[26] = Preemergence, Rate 500 g/ha, scale 0 to 100, 0 no effect, 100 complete control
[27] = preemergence, Rate 125 g/ha, scale 0 to 100, 0 no effect, 100 complete control
[28] = Rate 125 g/ha, scale 0 (no effect) to 100 (complete control), 13 to 15 days
[29] = Rate 500 g/ha, scale 0 to 100, 0 is no effect, 100 is complete control, 13 to 15 days
[30] = preemergence, Rate 125 g/ha, scale of 0 to 100 where 0 is no effect and 100 is complete control, 13 to 15 days
[31] = preemergence, Rate 62 g/ha, scale of 0 to 100 where 0 is no effect and 100 is complete control, 13 to 15 days
[32] = preemergence, Rate 250 g/ha, scale 0 to 100, 0 no effect, 100 complete control
[33] = Rate 62 g/ha, scale 0 to 100, 0 no effect, 100 complete control
[34] = Rate 250 g/ha, scale 0 (no effect) to 100 (complete control), 13 to 15 days

CCC(CC)c1ccn(C2SCN(c3cccc(C(F)(F)F)c3)C2=O)n1 (stereo not shown) [Compound 21]
70: Plant response rating, Sunflower ([1]; Rate 125 g/ha) | Plant response rating, Foxtail, Giant [6, 27] | Plant response rating, Crabgrass [12, 29] | Plant response rating, Cocklebur [15, 28] | Plant response rating, Morningglory [18, 28] | Plant response rating, Pigweed [21, 28]
80: Plant response rating, Cocklebur [15, 29] | Plant response rating, Morningglory [18, 29]
60: Plant response rating, Barnyardgrass [3, 27] | Plant response rating, Foxtail, Giant [19, 29] | Plant response rating, Velvetleaf [24, 29]
100: Plant response rating, Crabgrass [2, 26] | Plant response rating, Crabgrass [2, 27] | Plant response rating, Barnyardgrass [3, 26] | Plant response rating, Morningglory [5, 26] | Plant response rating, Foxtail, Giant [6, 26] | Plant response rating, Barnyardgrass [14, 29] | Plant response rating, Lambsquarters [16, 28] | Plant response rating, Lambsquarters [16, 29]
20: Plant response rating, Surinam grass [10, 26] | Plant response rating, Surinam grass [10, 27] | Plant response rating, Foxtail, Giant [19, 28] | Plant response rating, Velvetleaf [24, 28]
30: Plant response rating, Crabgrass [12, 28]
0: Plant response rating, Cocklebur [4, 26] | Plant response rating, Pigweed [7, 27] | Plant response rating, Rice [8, 26] | Plant response rating, Rice [8, 27] | Plant response rating, Corn [9, 26] | Plant response rating, Corn [9, 27] | Plant response rating, Velvetleaf [11, 26] | Plant response rating, Velvetleaf [11, 27] | Plant response rating, Blackgrass [13, 28] | Plant response rating, Blackgrass [13, 29] | Plant response rating, Wild Oat [17, 28] | Plant response rating, Wild Oat [17, 29] | Plant response rating, Wheat [20, 28] | Plant response rating, Wheat [20, 29] | Plant response rating, Corn [22, 28] | Plant response rating, Corn [22, 29] | Plant response rating, Surinam grass [23, 28] | Plant response rating, Surinam grass [23, 29]
90: Plant response rating, Morningglory [5, 27] | Plant response rating, Pigweed [7, 26] | Plant response rating, Barnyardgrass [14, 28] | Plant response rating, Pigweed [21, 29]

CC(C)(C)c1ccn(C2CCN(c3cccc(Cl)c3)C2=O)n1 (stereo not shown) [Compound 43]
70: Plant response rating, Rice [8, 26] | Plant response rating, Barnyardgrass [14, 29]
100: Plant response rating, Barnyardgrass [3, 26] | Plant response rating, Lambsquarters [25, 26] | Plant response rating, Lambsquarters [25, 27] | Plant response rating, Foxtail, Giant [6, 26] | Plant response rating, Pigweed [7, 26]
20: Plant response rating, Surinam grass [10, 26]
80: Plant response rating, Lambsquarters [16, 29] | Plant response rating, Pigweed [21, 29]
60: Plant response rating, Barnyardgrass [3, 27]
90: Plant response rating, Crabgrass [2, 26]
0: Plant response rating, Sunflower ([1]; Rate 125 g/ha) | Plant response rating, Crabgrass [2, 27] | Plant response rating, Cocklebur [4, 26] | Plant response rating, Morningglory [5, 26] | Plant response rating, Foxtail, Giant [6, 27] | Plant response rating, Corn [9, 26] | Plant response rating, Corn [9, 27] | Plant response rating, Surinam grass [10, 27] | Plant response rating, Velvetleaf [11, 26] | Plant response rating, Crabgrass [12, 28] | Plant response rating, Blackgrass [13, 28] | Plant response rating, Blackgrass [13, 29] | Plant response rating, Barnyardgrass [14, 28] | Plant response rating, Cocklebur [15, 28] | Plant response rating, Cocklebur [15, 29] | Plant response rating, Wild Oat [17, 28] | Plant response rating, Wild Oat [17, 29] | Plant response rating, Morningglory [18, 28] | Plant response rating, Morningglory [18, 29] | Plant response rating, Foxtail, Giant [19, 28] | Plant response rating, Foxtail, Giant [19, 29] | Plant response rating, Wheat [20, 28] | Plant response rating, Wheat [20, 29] | Plant response rating, Corn [22, 28] | Plant response rating, Corn [22, 29] | Plant response rating, Surinam grass [23, 28] | Plant response rating, Surinam grass [23, 29] | Plant response rating, Velvetleaf [24, 28] | Plant response rating, Velvetleaf [24, 29]
50: Plant response rating, Crabgrass [12, 29] | Plant response rating, Lambsquarters [16, 28] | Plant response rating, Pigweed [21, 28]

CC(C)(C)c1ccn(C2CCN(c3cccc([S+]([O-])C(F)(F)F)c3)C2=O)n1 (stereo not shown) [Compound 101]
80: Plant response rating, Surinam grass [10, 26]
100: Plant response rating, Crabgrass [2, 26] | Plant response rating, Barnyardgrass [3, 26] | Plant response rating, Lambsquarters [25, 26] | Plant response rating, Lambsquarters [25, 30] | Plant response rating, Foxtail, Giant [6, 26] | Plant response rating, Pigweed [7, 26]
90: Plant response rating, Crabgrass [2, 30]
0: Plant response rating, Cocklebur [4, 26] | Plant response rating, Cocklebur [4, 30] | Plant response rating, Morningglory [5, 26] | Plant response rating, Morningglory [5, 30] | Plant response rating, Foxtail, Giant [6, 30] | Plant response rating, Rice [8, 30] | Plant response rating, Corn [9, 30] | Plant response rating, Surinam grass [10, 30] | Plant response rating, Velvetleaf [11, 26] | Plant response rating, Velvetleaf [11, 30] | Plant response rating, Crabgrass [12, 28] | Plant response rating, Crabgrass [12, 29] | Plant response rating, Blackgrass [13, 28] | Plant response rating, Blackgrass [13, 29] | Plant response rating, Barnyardgrass [14, 28] | Plant response rating, Barnyardgrass [14, 29] | Plant response rating, Lambsquarters [16, 29] | Plant response rating, Wild Oat [17, 29] | Plant response rating, Morningglory [18, 29] | Plant response rating, Foxtail, Giant [19, 28] | Plant response rating, Foxtail, Giant [19, 29] | Plant response rating, Wheat [20, 29] | Plant response rating, Pigweed [21, 29] | Plant response rating, Corn [22, 28] | Plant response rating, Corn [22, 29] | Plant response rating, Surinam grass [23, 28] | Plant response rating, Surinam grass [23, 29] | Plant response rating, Velvetleaf [24, 29]
70: Plant response rating, Corn [9, 26]
40: Plant response rating, Pigweed [7, 30]
30: Plant response rating, Sunflower ([1]; Rate 250 g/ha) | Plant response rating, Barnyardgrass [3, 30]

CC(C)(C)c1ccn(C2OCN(c3cccc(C(F)(F)F)c3)C2=O)n1 (stereo not shown) [compound 9]
100: Plant response rating, Crabgrass [2, 32] | Plant response rating, Lambsquarters [25, 32] | Plant response rating, Pigweed [7, 32]
70: Plant response rating, Surinam grass [10, 32] | Plant response rating, Lambsquarters [16, 33] | Plant response rating, Pigweed [21, 33]
20: Plant response rating, Cocklebur [15, 34]
60: Plant response rating, Barnyardgrass [3, 32] | Plant response rating, Barnyardgrass [14, 34]
10: Plant response rating, Cocklebur [15, 33] | Plant response rating, Morningglory [18, 34]
30: Plant response rating, Foxtail, Giant [6, 31]
80: Plant response rating, Pigweed [7, 31] | Plant response rating, Lambsquarters [16, 34] | Plant response rating, Pigweed [21, 34]
0: Plant response rating, Crabgrass [2, 31] | Plant response rating, Barnyardgrass [3, 31] | Plant response rating, Cocklebur [4, 31] | Plant response rating, Cocklebur [4, 32] | Plant response rating, Morningglory [5, 31] | Plant response rating, Morningglory [5, 32] | Plant response rating, Rice [8, 31] | Plant response rating, Rice [8, 32] | Plant response rating, Corn [9, 31] | Plant response rating, Corn [9, 32] | Plant response rating, Surinam grass [10, 31] | Plant response rating, Velvetleaf [11, 31] | Plant response rating, Velvetleaf [11, 32] | Plant response rating, Crabgrass [12, 33] | Plant response rating, Crabgrass [12, 34] | Plant response rating, Blackgrass [13, 33] | Plant response rating, Blackgrass [13, 34] | Plant response rating, Barnyardgrass [14, 33] | Plant response rating, Wild Oat [17, 33] | Plant response rating, Wild Oat [17, 34] | Plant response rating, Morningglory [18, 33] | Plant response rating, Foxtail, Giant [19, 33] | Plant response rating, Foxtail, Giant [19, 34] | Plant response rating, Wheat [20, 33] | Plant response rating, Wheat [20, 34] | Plant response rating, Corn [22, 33] | Plant response rating, Corn [22, 34] | Plant response rating, Surinam grass [23, 33] | Plant response rating, Surinam grass [23, 34] | Plant response rating, Velvetleaf [24, 33] | Plant response rating, Velvetleaf [24, 34]
90: Plant response rating, Lambsquarters [25, 31] | Plant response rating, Foxtail, Giant [6, 32]
